PMC5218480 (PLoS ONE, 2017)

Test system: MV-4-11 cells
Test: Gene expression microarray analysis (Affymetrix PrimeView) and GSEA
Format: cell-based, human
Parameters: RFU PODN (11730768_x_at) / Fold change /veh PODN (11730768_x_at) / RFU LINC00158 (11744669_a_at) / Fold change /veh LINC00158 (11744669_a_at) / RFU DUSP10 (11751237_a_at) / Fold change /veh DUSP10 (11751237_a_at) / RFU ID3 (11757404_x_at) / Fold change /veh ID3 (11757404_x_at) / RFU PLEKHG5 (11737974_s_at) / Fold change /veh PLEKHG5 (11737974_s_at) / RFU LRRC4B (11730491_at) / Fold change /veh LRRC4B (11730491_at) / RFU GIMAP4 (11747438_a_at) / Fold change /veh GIMAP4 (11747438_a_at) / RFU KRT8 (11758183_x_at) / Fold change /veh KRT8 (11758183_x_at) / RFU CNN1 (11734310_a_at) / Fold change /veh CNN1 (11734310_a_at) / RFU VPS37D (11726825_at) / Fold change /veh VPS37D (11726825_at) / RFU C10orf10 (11716522_x_at) / Fold change /veh C10orf10 (11716522_x_at) / RFU KIR2DL2 /// KIR2DL4 /// KIR2DL5A /// KIR2DL5B /// KIR2DS1 /// KIR2DS2 /// KIR2DS3 /// KIR2DS4 /// KIR3DL3 /// KIR3DL3 /// KIR3DS1 (11738374_at) / Fold change /veh KIR2DL2 /// KIR2DL4 /// KIR2DL5A /// KIR2DL5B /// KIR2DS1 /// KIR2DS2 /// KIR2DS3 /// KIR2DS4 /// KIR3DL3 /// KIR3DL3 /// KIR3DS1 (11738374_at) / RFU C1QL1 (11718748_at) / Fold change /veh C1QL1 (11718748_at) / RFU TMPRSS4 (11747572_a_at) / Fold change /veh TMPRSS4 (11747572_a_at) / RFU HAMP (11756126_x_at) / Fold change /veh HAMP (11756126_x_at) / RFU RNFT2 (11725882_a_at) / Fold change /veh RNFT2 (11725882_a_at) / RFU NR4A2 (11747474_a_at) / Fold change /veh NR4A2 (11747474_a_at) / RFU ABCC12 (11746883_a_at) / Fold change /veh ABCC12 (11746883_a_at) / RFU TMEM136 (11760407_x_at) / Fold change /veh TMEM136 (11760407_x_at) / RFU CLDN22 /// WWC2 (11732394_at) / Fold change /veh CLDN22 /// WWC2 (11732394_at) / RFU HLA-DPB1 (11760878_x_at) / Fold change /veh HLA-DPB1 (11760878_x_at) / RFU SPINT1 (11716480_a_at) / Fold change /veh SPINT1 (11716480_a_at) / RFU GAP43 (11754022_s_at) / Fold change /veh GAP43 (11754022_s_at) / RFU A4GNT (11735810_at) / Fold change /veh A4GNT (11735810_at) / RFU PRB3 (11715151_x_at) / Fold change /veh PRB3 (11715151_x_at) / RFU TUBB4B (11761932_at) / Fold change /veh TUBB4B (11761932_at) / RFU CAPN14 (11732068_a_at) / Fold change /veh CAPN14 (11732068_a_at) / RFU TMCC2 (11721928_a_at) / Fold change /veh TMCC2 (11721928_a_at) / RFU IRGQ (11745062_a_at) / Fold change /veh IRGQ (11745062_a_at) / RFU FAM174B (11720279_a_at) / Fold change /veh FAM174B (11720279_a_at) / RFU TMPRSS4 (11748680_a_at) / Fold change /veh TMPRSS4 (11748680_a_at) / RFU FAM212B (11763350_a_at) / Fold change /veh FAM212B (11763350_a_at) / RFU PLEKHG5 (11743358_a_at) / Fold change /veh PLEKHG5 (11743358_a_at) / RFU ZSCAN30 (11745921_a_at) / Fold change /veh ZSCAN30 (11745921_a_at) / RFU CMKLR1 (11741424_a_at) / Fold change /veh CMKLR1 (11741424_a_at) / RFU LOC101060620 /// MAPK8IP1 (11723275_at) / Fold change /veh LOC101060620 /// MAPK8IP1 (11723275_at) / RFU SPTSSB (11747773_x_at) / Fold change /veh SPTSSB (11747773_x_at) / RFU PRSS12 (11739890_at) / Fold change /veh PRSS12 (11739890_at) / RFU BIN1 (11741810_x_at) / Fold change /veh BIN1 (11741810_x_at) / RFU WNT11 (11732464_a_at) / Fold change /veh WNT11 (11732464_a_at) / RFU C10orf10 (11716521_a_at) / Fold change /veh C10orf10 (11716521_a_at) / RFU C5orf56 (11738089_at) / Fold change /veh C5orf56 (11738089_at) / RFU CYB561 (11721691_x_at) / Fold change /veh CYB561 (11721691_x_at) / RFU ANKRD19P (11752326_a_at) / Fold change /veh ANKRD19P (11752326_a_at) / RFU OR2T12 /// OR2T33 /// OR2T8 (11738714_s_at) / Fold change /veh OR2T12 /// OR2T33 /// OR2T8 (11738714_s_at) / RFU VCAN (11748164_a_at) / Fold change /veh VCAN (11748164_a_at) / RFU JSRP1 (11732532_at) / Fold change /veh JSRP1 (11732532_at) / RFU KRTAP10-11 (11738290_x_at) / Fold change /veh KRTAP10-11 (11738290_x_at) / RFU MYO3A (11730013_a_at) / Fold change /veh MYO3A (11730013_a_at) / RFU EBF3 (11725865_a_at) / Fold change /veh EBF3 (11725865_a_at) / RFU CAMK2N1 (11719241_x_at) / Fold change /veh CAMK2N1 (11719241_x_at) / RFU C5orf56 (11738088_a_at) / Fold change /veh C5orf56 (11738088_a_at) / RFU OLFML3 (11715873_a_at) / Fold change /veh OLFML3 (11715873_a_at) / RFU LOC100653217 /// NTM (11731650_a_at) / Fold change /veh LOC100653217 /// NTM (11731650_a_at) / RFU MAPK11 (11762145_a_at) / Fold change /veh MAPK11 (11762145_a_at) / RFU FIZ1 (11724087_x_at) / Fold change /veh FIZ1 (11724087_x_at) / RFU OASL (11726364_x_at) / Fold change /veh OASL (11726364_x_at) / RFU SOX15 (11748057_x_at) / Fold change /veh SOX15 (11748057_x_at) / RFU CD79A (11719716_a_at) / Fold change /veh CD79A (11719716_a_at) / RFU HIST1H1D (11736915_at) / Fold change /veh HIST1H1D (11736915_at) / RFU CASKIN2 (11723855_a_at) / Fold change /veh CASKIN2 (11723855_a_at) / RFU LOC730098 (11760151_x_at) / Fold change /veh LOC730098 (11760151_x_at) / RFU OR4N2 (11742367_at) / Fold change /veh OR4N2 (11742367_at) / RFU PRRT2 (11749266_a_at) / Fold change /veh PRRT2 (11749266_a_at) / RFU SNX32 (11753110_a_at) / Fold change /veh SNX32 (11753110_a_at) / RFU CDHR5 (11726645_a_at) / Fold change /veh CDHR5 (11726645_a_at) / RFU RCAN1 (11760418_a_at) / Fold change /veh RCAN1 (11760418_a_at) / RFU FAM167A (11723789_a_at) / Fold change /veh FAM167A (11723789_a_at) / RFU FAM26E (11764081_at) / Fold change /veh FAM26E (11764081_at) / RFU ISYNA1 (11749810_s_at) / Fold change /veh ISYNA1 (11749810_s_at) / RFU ACY1 (11761880_at) / Fold change /veh ACY1 (11761880_at) / RFU 11764098_at / Fold change /veh 11764098_at / RFU SAMD14 (11745864_x_at) / Fold change /veh SAMD14 (11745864_x_at) / RFU NPB (11741838_a_at) / Fold change /veh NPB (11741838_a_at) / RFU TMPRSS6 (11731388_a_at) / Fold change /veh TMPRSS6 (11731388_a_at) / RFU KRTAP10-2 (11738614_at) / Fold change /veh KRTAP10-2 (11738614_at) / RFU ARHGAP8 /// PRR5-ARHGAP8 (11727945_x_at) / Fold change /veh ARHGAP8 /// PRR5-ARHGAP8 (11727945_x_at) / RFU KRTAP5-7 /// NADSYN1 (11734609_at) / Fold change /veh KRTAP5-7 /// NADSYN1 (11734609_at) / RFU RASL12 (11751679_a_at) / Fold change /veh RASL12 (11751679_a_at) / RFU CDKN2B (11736163_a_at) / Fold change /veh CDKN2B (11736163_a_at) / RFU PRF1 (11729649_at) / Fold change /veh PRF1 (11729649_at) / RFU, ZNF638 /// ZNF638-IT1 / Fold change vs veh, ZNF638 /// ZNF638-IT1 / RFU, PANK3 / Fold change vs veh, PANK3 / RFU, SH3YL1 / Fold change vs veh, SH3YL1 / RFU, ZEB2 / Fold change vs veh, ZEB2 / RFU, NRIP1 / Fold change vs veh, NRIP1 / RFU, PTTG1IP / Fold change vs veh, PTTG1IP / RFU, CAPN2 / Fold change vs veh, CAPN2 / RFU, MED14 / Fold change vs veh, MED14 / RFU, SNORA58 / Fold change vs veh, SNORA58 / RFU, C1orf63 / Fold change vs veh, C1orf63 / RFU, LRRFIP1 / Fold change vs veh, LRRFIP1 / RFU, NDUFAF7 / Fold change vs veh, NDUFAF7 / RFU, SLC12A2 / Fold change vs veh, SLC12A2 / RFU, IBTK / Fold change vs veh, IBTK / RFU, ESF1 / Fold change vs veh, ESF1 / Fold change vs veh, TMEM50B / RFU, TAOK1 / Fold change vs veh, TAOK1 / RFU, ACBD3 / Fold change vs veh, ACBD3 / RFU, TMA16 / Fold change vs veh, TMA16 / RFU, RWDD3 / Fold change vs veh, RWDD3 / RFU, BCAT1 / Fold change vs veh, BCAT1 / RFU, EDEM3 / Fold change vs veh, EDEM3 / RFU, TMEM33 / Fold change vs veh, TMEM33 / RFU, WDR75 / Fold change vs veh, WDR75 / RFU, AHCTF1 / Fold change vs veh, AHCTF1 / RFU, TFRC / Fold change vs veh, TFRC / RFU, ZDHHC17 / Fold change vs veh, ZDHHC17 / RFU, NOM1 / Fold change vs veh, NOM1 / RFU, ARL8B / Fold change vs veh, ARL8B / RFU, ZBTB11 / Fold change vs veh, ZBTB11 / RFU, TAMM41 / Fold change vs veh, TAMM41 / RFU, KIAA1704 /// LOC100996395 / Fold change vs veh, KIAA1704 /// LOC100996395 / RFU, ING1 / Fold change vs veh, ING1 / RFU, TRMT61B / Fold change vs veh, TRMT61B / RFU, FUBP3 / Fold change vs veh, FUBP3 / RFU, TP53 / Fold change vs veh, TP53 / RFU, TNKS2 / Fold change vs veh, TNKS2 / RFU, ZFP14 / Fold change vs veh, ZFP14 / RFU, ACTR2 / Fold change vs veh, ACTR2 / RFU, PPP3R1 / Fold change vs veh, PPP3R1 / RFU, PIK3R1 / Fold change vs veh, PIK3R1 / RFU, HNRNPA1 / Fold change vs veh, HNRNPA1 / RFU, RNF170 / Fold change vs veh, RNF170 / RFU, ZNF28 / Fold change vs veh, ZNF28 / RFU, RNGTT / Fold change vs veh, RNGTT / RFU, OGT / Fold change vs veh, OGT / RFU, BRD1 / Fold change vs veh, BRD1 / RFU, MARS / Fold change vs veh, MARS / RFU, ZNF655 / Fold change vs veh, ZNF655 / RFU, FAHD1 / Fold change vs veh, FAHD1 / RFU, BDP1 / Fold change vs veh, BDP1 / RFU, LRRCC1 / Fold change vs veh, LRRCC1 / RFU, ARID1A / Fold change vs veh, ARID1A / RFU, ZNF146 / Fold change vs veh, ZNF146 / RFU, ZNF330 / Fold change vs veh, ZNF330 / RFU, GPN3 / Fold change vs veh, GPN3 / RFU, C9orf123 / Fold change vs veh, C9orf123 / RFU, N4BP2L2 / Fold change vs veh, N4BP2L2 / RFU, ARFIP1 / Fold change vs veh, ARFIP1 / RFU, FAM179B / Fold change vs veh, FAM179B / RFU, BCL10 / Fold change vs veh, BCL10 / RFU, UHRF1BP1L / Fold change vs veh, UHRF1BP1L / RFU, BET1 / Fold change vs veh, BET1 / RFU, CNOT2 / Fold change vs veh, CNOT2 / RFU, ZNF268 / Fold change vs veh, ZNF268 / Fold change vs veh, ZNF507 / RFU, DGCR2 / Fold change vs veh, DGCR2 / RFU, WDSUB1 / Fold change vs veh, WDSUB1 / Fold change vs veh, HSP90B1 /// MIR3652 / RFU, ADSS / Fold change vs veh, ADSS / RFU, GK / Fold change vs veh, GK / RFU, ZNF148 / Fold change vs veh, ZNF148 / RFU, TAF9 / Fold change vs veh, TAF9 / RFU, SLC1A5 / Fold change vs veh, SLC1A5 / RFU, SLMO2 / Fold change vs veh, SLMO2 / RFU, ABCC4 / Fold change vs veh, ABCC4 / RFU, LOC101060439 /// RAP1B / Fold change vs veh, LOC101060439 /// RAP1B / RFU, RFX7 / Fold change vs veh, RFX7 / RFU, GTPBP10 / Fold change vs veh, GTPBP10 / RFU, CNEP1R1 / Fold change vs veh, CNEP1R1 / RFU, BIVM-ERCC5 /// ERCC5 / Fold change vs veh, BIVM-ERCC5 /// ERCC5 / RFU, ILF3 / Fold change vs veh, ILF3 / RFU 11762660_at / Fold change /veh 11762660_at / RFU VCAN (11757783_s_at) / Fold change /veh VCAN (11757783_s_at) / RFU DDX43 (11728927_at) / Fold change /veh DDX43 (11728927_at) / RFU KRT8 (11758188_x_at) / Fold change /veh KRT8 (11758188_x_at) / RFU NKD1 (11759106_at) / Fold change /veh NKD1 (11759106_at) / RFU SRD5A1 (11742802_a_at) / Fold change /veh SRD5A1 (11742802_a_at) / RFU TPSAB1 /// TPSB2 (11721975_s_at) / Fold change /veh TPSAB1 /// TPSB2 (11721975_s_at) / RFU GSTM3 (11746129_a_at) / Fold change /veh GSTM3 (11746129_a_at) / RFU IL23R (11737362_x_at) / Fold change /veh IL23R (11737362_x_at) / RFU TMEM51 (11727254_a_at) / Fold change /veh TMEM51 (11727254_a_at) / RFU PIWIL2 (11732686_x_at) / Fold change /veh PIWIL2 (11732686_x_at) / RFU ORM1 (11744905_x_at) / Fold change /veh ORM1 (11744905_x_at) / RFU CCDC152 (11743942_at) / Fold change /veh CCDC152 (11743942_at) / RFU ECM1 (11717891_a_at) / Fold change /veh ECM1 (11717891_a_at) / RFU IL23R (11748794_a_at) / Fold change /veh IL23R (11748794_a_at) / RFU TNFAIP8L3 (11732012_x_at) / Fold change /veh TNFAIP8L3 (11732012_x_at) / RFU MBOAT4 (11741988_at) / Fold change /veh MBOAT4 (11741988_at) / RFU 11764193_at / Fold change /veh 11764193_at / RFU TMEM53 (11763286_at) / Fold change /veh TMEM53 (11763286_at) / RFU MAGEB2 (11727129_at) / Fold change /veh MAGEB2 (11727129_at) / RFU TMEM200A (11744735_a_at) / Fold change /veh TMEM200A (11744735_a_at) / RFU CCDC152 (11751479_a_at) / Fold change /veh CCDC152 (11751479_a_at) / RFU FAM211A (11726209_a_at) / Fold change /veh FAM211A (11726209_a_at) / RFU RGS16 (11746705_a_at) / Fold change /veh RGS16 (11746705_a_at) / RFU VCAN (11755009_s_at) / Fold change /veh VCAN (11755009_s_at) / RFU RHOB (11743442_s_at) / Fold change /veh RHOB (11743442_s_at) / RFU RGS16 (11720943_a_at) / Fold change /veh RGS16 (11720943_a_at) / RFU RGS16 (11720944_at) / Fold change /veh RGS16 (11720944_at) / RFU, VPS4B / Fold change vs veh, VPS4B / RFU, CREB1 / Fold change vs veh, CREB1 / RFU, DNAJC13 / Fold change vs veh, DNAJC13 / RFU, GNAQ / Fold change vs veh, GNAQ / RFU, CDK5R1 / Fold change vs veh, CDK5R1 / RFU, ZRANB3 / Fold change vs veh, ZRANB3 / RFU, CUL4A / Fold change vs veh, CUL4A / RFU, CCNY / Fold change vs veh, CCNY / RFU, UFL1 / Fold change vs veh, UFL1 / RFU, COG3 / Fold change vs veh, COG3 / RFU, DIAPH2 / Fold change vs veh, DIAPH2 / RFU, SKA2 / Fold change vs veh, SKA2 / RFU, AFF3 / Fold change vs veh, AFF3 / RFU, LMF1 / Fold change vs veh, LMF1 / RFU, IPO11 / Fold change vs veh, IPO11 / RFU, DFFB / Fold change vs veh, DFFB / RFU, FOXP1 / Fold change vs veh, FOXP1 / RFU, CARD8 / Fold change vs veh, CARD8 / RFU, STRN3 / Fold change vs veh, STRN3 / RFU, ADK / Fold change vs veh, ADK / RFU, RASSF2 / Fold change vs veh, RASSF2 / RFU, WIPF1 / Fold change vs veh, WIPF1 / RFU, LARP1B / Fold change vs veh, LARP1B / RFU, RASA1 / Fold change vs veh, RASA1 / RFU, RB1 / Fold change vs veh, RB1 / RFU, PPFIA1 / Fold change vs veh, PPFIA1 / RFU, MAT2A / Fold change vs veh, MAT2A / RFU, CCT5 / Fold change vs veh, CCT5 / RFU, WDR92 / Fold change vs veh, WDR92 / RFU, CUX1 / Fold change vs veh, CUX1 / RFU, TTC7A / Fold change vs veh, TTC7A / RFU, TMEM135 / Fold change vs veh, TMEM135 / RFU, DEPTOR / Fold change vs veh, DEPTOR / RFU, CPM / Fold change vs veh, CPM / RFU, DNAJB6 / Fold change vs veh, DNAJB6 / RFU, CACNA2D3 / Fold change vs veh, CACNA2D3 / RFU, DTX4 / Fold change vs veh, DTX4 / RFU, TFCP2 / Fold change vs veh, TFCP2 / RFU, GMCL1 /// GMCL1P1 / Fold change vs veh, GMCL1 /// GMCL1P1 / RFU, AEBP2 / Fold change vs veh, AEBP2 / RFU, SNHG1 /// SNORD22 /// SNORD25 /// SNORD26 /// SNORD27 /// SNORD28 /// SNORD29 /// SNORD31 / Fold change vs veh, SNHG1 /// SNORD22 /// SNORD25 /// SNORD26 /// SNORD27 /// SNORD28 /// SNORD29 /// SNORD31 / Fold change (Aza/veh), C12orf56 (ProbeSet 11735607_a_at) / Fold change (ACY-1035/veh), C12orf56 (ProbeSet 11735607_a_at) / Fold change (Aza/veh), FGFR1OP (ProbeSet 11751329_s_at) / Fold change (ACY-1035/veh), FGFR1OP (ProbeSet 11751329_s_at) / Fold change (Aza/veh), VPS36 (ProbeSet 11739960_a_at) / Fold change (ACY-1035/veh), VPS36 (ProbeSet 11739960_a_at) / RFU SYPL1 (11715823_x_at) / Fold change /veh SYPL1 (11715823_x_at) / RFU IGFBP7 (11715501_s_at) / Fold change /veh IGFBP7 (11715501_s_at) / RFU REEP3 (11722064_at) / Fold change /veh REEP3 (11722064_at) / RFU IGLL1 (11728026_x_at) / Fold change /veh IGLL1 (11728026_x_at): dose or concentration left out as unconfirmed
Conditions: MV-4-11 cells, 48 hours

## Nc1ncn([C@@H]2O[C@H](CO)[C@@H](O)[C@H]2O)c(=O)n1 [azacitidine]
  RFU 11764193_at: 40.50 RFU
